Experimental data from patent US20240083853A1, “HSD17B13 INHIBITORS AND USES THEREOF” (FL2022-001, Inc., priority 2020, published 2024).

Target: T1, Recombinant human HSD17B13 enzyme (Homo sapiens, UniProt Q7Z5P4)
T1 sequence (Q7Z5P4 20-300): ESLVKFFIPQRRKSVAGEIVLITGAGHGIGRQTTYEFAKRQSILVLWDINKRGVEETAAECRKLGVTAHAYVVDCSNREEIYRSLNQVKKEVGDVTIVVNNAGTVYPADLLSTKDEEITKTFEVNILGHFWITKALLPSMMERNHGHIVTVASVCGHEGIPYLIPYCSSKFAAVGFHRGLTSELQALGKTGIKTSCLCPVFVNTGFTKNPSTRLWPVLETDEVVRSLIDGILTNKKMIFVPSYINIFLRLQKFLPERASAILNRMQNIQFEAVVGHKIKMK
Experiment: HSD17b13 NAD(P)H-Glo biochemical assay
Details: 50 uM estradiol, 1 mM NAD+, NAD(P)H-Glo luminescence; read-out: HSD17β13 IC50
Procedure, shortened: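 Recombinant human HSD17B13 in 20 mM Tris pH7.4 with 0.002% Tween-20 and 0.02% BSA was preincubated with inhibitor for 20 minutes at RT. The reaction ran 3 hours at 37° C with 50 uM estradiol and 1 mM NAD+ (final). NADH formed was detected by NAD(P)H-Glo luminescence after 1 hour at RT.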

Compound | IC50 [nM]
Nc1cccc(-c2ccc(-n3ncc4cc(F)c(O)cc43)cc2)c1 [Compound 13.27, 1-(3′-Amino-[1,1′-biphenyl]-4-yl)-5-fluoro-1H-indazol-6-ol] | 1000 to 30000
CC1(C)CCN(c2ccc(-n3ccc4cc(F)c(O)c(F)c43)cc2)CC1 [Compound 6.2, 1-(4-(4,4-Dimethylpiperidin-1-yl)phenyl)-5,7-difluoro-1H-indol-6-ol] | 100 to 1000
Oc1c(F)cc2cnn(-c3ccc(-c4ccncc4)cc3)c2c1F [Compound 14.4, 5,7-Difluoro-1-(4-(pyridin-4-yl)phenyl)-1H-indazol-6-ol] | < 100
CC1(C)CCN(c2ccc(N3C(=O)C(C)(C)c4cc(F)c(O)c(F)c43)cc2)CC1 [Compound 34, 1-(4-(4,4-Dimethylpiperidin-1-yl)phenyl)-5,7-difluoro-6-hydroxy-3,3-dimethylindolin-2-one] | 1000 to 30000
CC1CN(c2ccc(-n3ncc4cc(F)c(O)c(F)c43)cc2)CC(C)S1(=O)=O (stereo not drawn) [Compound 32, 4-(4-(5,7-Difluoro-6-hydroxy-1H-indazol-1-yl)phenyl)-2,6-dimethylthiomorpholine 1,1-dioxide] | 100 to 1000
N#CC1CCN(c2ccc(-n3ncc4cc(F)c(O)c(F)c43)cc2)CC1 [Compound 22, 1-(4-(5,7-Difluoro-6-hydroxy-1H-indazol-1-yl)phenyl)piperidine-4-carbonitrile] | < 100
Oc1ccc(-c2ccc(-n3ncc4ccc(O)cc43)cc2)cc1 [Compound 1, 1-(4′-Hydroxy-[1,1′-biphenyl]-4-yl)-1H-indazol-6-ol] | 100 to 1000
Oc1cc2c(cnn2-c2ccc(-c3ccccc3O)cc2)cc1F [Compound 13.2, 5-Fluoro-1-(2′-hydroxy-[1,1′-biphenyl]-4-yl)-1H-indazol-6-ol] | 100 to 1000
CS(=O)(=O)c1cccc(-c2ccc(-n3ncc4cc(F)c(O)cc43)cc2)c1 [Compound 13.25, 5-Fluoro-1-(3′-(methylsulfonyl)-[1,1′-biphenyl]-4-yl)-1H-indazol-6-ol] | 100 to 1000
CC1(C)CCN(c2ccc(-n3ncc4cc(F)c(O)c(F)c43)cn2)CC1 [Compound 26, 1-(6-(4,4-Dimethylpiperidin-1-yl)pyridin-3-yl)-5,7-difluoro-1H-indazol-6-ol] | < 100
CC1(C)CCN(c2ccc(-n3c(=O)oc4cc(F)c(O)c(F)c43)cc2)CC1 [Compound 39, 3-(4-(4,4-Dimethylpiperidin-1-yl)phenyl)-4,6-difluoro-5-hydroxybenzo[d]oxazol-2(3H)-one] | < 100
Oc1cc2c(cnn2-c2ccc(-c3ccccc3)cc2)cc1F [Compound 2.2, 1-([1,1′-Biphenyl]-4-yl)-5-fluoro-1H-indazol-6-ol] | 100 to 1000
Oc1cc2c(cnn2-c2ccc(-c3ccc(Cl)cc3)cc2)cc1F [Compound 13.8, 1-(4′-Chloro-[1,1′-biphenyl]-4-yl)-5-fluoro-1H-indazol-6-ol] | 100 to 1000
Nc1ccc(-c2ccc(-n3ncc4cc(F)c(O)cc43)cc2)cc1 [Compound 13.28, 1-(4′-Amino-[1,1′-biphenyl]-4-yl)-5-fluoro-1H-indazol-6-ol] | 100 to 1000

Continued, values first:

IC50 [nM] | Compound
< 100 | Oc1c(F)cc2cnn(-c3ccc(N4CCC5(CC4)COC5)cc3)c2c1F [Compound 23.25, 1-(4-(2-Oxa-7-azaspiro[3.5]nonan-7-yl)phenyl)-5,7-difluoro-1H-indazol-6-ol]
100 to 1000 | Oc1c(F)cc2cnn(-c3ccc(N4CCC(O)CC4)cc3)c2c1F [Compound 23.1, 5,7-Difluoro-1-(4-(4-hydroxypiperidin-1-yl)phenyl)-1H-indazol-6-ol]
< 100 | CC(C)C1CCN(c2ccc(-n3ncc4cc(F)c(O)c(F)c43)cc2)CC1 [Compound 20.9, 5,7-Difluoro-1-(4-(4-isopropylpiperidin-1-yl)phenyl)-1H-indazol-6-ol]
< 100 | CC1(C(F)(F)F)CCN(c2ccc(-n3ncc4cc(F)c(O)c(F)c43)cc2)CC1 [Compound 24.8, 5,7-Difluoro-1-(4-(4-methyl-4-(trifluoromethyl)piperidin-1-yl)phenyl)-1H-indazol-6-ol]
< 100 | Oc1c(F)cc2cnn(-c3ccc(N4CC5(CCOCC5)C4)cc3)c2c1F [Compound 23.26, 1-(4-(7-Oxa-2-azaspiro[3.5]nonan-2-yl)phenyl)-5,7-difluoro-1H-indazol-6-ol]
< 100 | CC1(C)CC=C(c2ccc(-n3ncc4cc(F)c(O)c(F)c43)cc2)CC1 [Compound 27.2, 1-(4′,4′-Dimethyl-2′,3′,4′,5′-tetrahydro-[1,1′-biphenyl]-4-yl)-5,7-difluoro-1H-indazol-6-ol]
< 100 | CC(C)C1CN(c2ccc(-n3ncc4cc(F)c(O)c(F)c43)cc2)C1 [Compound 24.3, 5,7-Difluoro-1-(4-(3-isopropylazetidin-1-yl)phenyl)-1H-indazol-6-ol]
100 to 1000 | CS(=O)(=O)N1CCCN(c2ccc(-n3ncc4cc(F)c(O)c(F)c43)cc2)CC1 [Compound 23.14, 5,7-Difluoro-1-(4-(4-(methylsulfonyl)-1,4-diazepan-1-yl)phenyl)-1H-indazol-6-ol]
100 to 1000 | Oc1c(F)cc2cnn(-c3ccc(N4CCC4)cc3)c2c1F [Compound 23.12, 1-(4-(Azetidin-1-yl)phenyl)-5,7-difluoro-1H-indazol-6-ol]
100 to 1000 | CC1(C)CCN(c2ccc(-n3c(Cl)nc4cc(F)c(O)c(F)c43)cc2)CC1 [Compound 21.9, 2-Chloro-1-(4-(4,4-dimethylpiperidin-1-yl)phenyl)-5,7-difluoro-1H-benzo[d]imidazol-6-ol]
100 to 1000 | CS(=O)(=O)NC1CCN(c2ccc(-n3ncc4cc(F)c(O)c(F)c43)cc2)CC1 [Compound 23.17, N-(1-(4-(5,7-Difluoro-6-hydroxy-1H-indazol-1-yl)phenyl)piperidin-4-yl)methanesulfonamide]
100 to 1000 | CS(=O)(=O)N1C2CC1CN(c1ccc(-n3ncc4cc(F)c(O)c(F)c43)cc1)C2 [Compound 23.15, 5,7-Difluoro-1-(4-(6-(methylsulfonyl)-3,6-diazabicyclo[3.1.1]heptan-3-yl)phenyl)-1H-indazol-6-ol]
100 to 1000 | Oc1c(F)cc2nnn(-c3ccc(N4CC5(CCOCC5)C4)nc3)c2c1F [Compound 26.12, 1-(6-(7-Oxa-2-azaspiro[3.5]nonan-2-yl)pyridin-3-yl)-5,7-difluoro-1H-benzo[d][1,2,3]triazol-6-ol]
< 100 | Oc1c(F)cc2nnn(-c3ccc(N4CC5(CCOCC5)C4)cc3)c2c1F [Compound 20.10, 1-(4-(7-Oxa-2-azaspiro[3.5]nonan-2-yl)phenyl)-5,7-difluoro-1H-benzo[d][1,2,3]triazol-6-ol]
< 100 | COC1(C)CN(c2ccc(-n3ncc4cc(F)c(O)c(F)c43)cc2)C1 [Compound 20.19, 5,7-Difluoro-1-(4-(3-methoxy-3-methylazetidin-1-yl)phenyl)-1H-indazol-6-ol]
< 100 | CC1(C#N)CCN(c2ccc(-n3ncc4cc(F)c(O)c(F)c43)cc2)CC1 [Compound 23.21, 1-(4-(5,7-Difluoro-6-hydroxy-1H-indazol-1-yl)phenyl)-4-methylpiperidine-4-carbonitrile]
1000 to 30000 | CS(=O)(=O)N1CCN(c2ccc(-n3ncc4cc(F)c(O)cc43)cc2)CC1 [Compound 21.2, 5-Fluoro-1-(4-(4-(methylsulfonyl)piperazin-1-yl)phenyl)-1H-indazol-6-ol]
< 100 | C[C@@H]1CN(c2ccc(-n3ncc4cc(F)c(O)c(F)c43)cc2)C[C@@H](C)O1 [Compound 24.10, 1-(4-((2R,6R)-2,6-Dimethylmorpholino)phenyl)-5,7-difluoro-1H-indazol-6-ol]
< 100 | COC1(C)CCN(c2ccc(-n3ncc4cc(F)c(O)c(F)c43)cc2)CC1 [Compound 20.20, 5,7-Difluoro-1-(4-(4-methoxy-4-methylpiperidin-1-yl)phenyl)-1H-indazol-6-ol]
< 100 | CS(=O)(=O)N1CCCC(c2ccc(-n3ncc4cc(F)c(O)c(F)c43)cc2)C1 (stereo not drawn) [Compound 30.1, 5,7-Difluoro-1-(4-(1-(methylsulfonyl)piperidin-3-yl)phenyl)-1H-indazol-6-ol]
< 100 | Cn1c(=O)n(-c2ccc(N3CCC(C)(C)CC3)cc2)c2c(F)c(O)c(F)cc21 [Compound 21.6, 3-(4-(4,4-Dimethylpiperidin-1-yl)phenyl)-4,6-difluoro-5-hydroxy-1-methyl-1H-benzo[d]imidazol-2(3H)-one]
100 to 1000 | CS(=O)(=O)N1CCN(c2ccc(-n3cnc4cc(F)c(O)c(F)c43)cc2)CC1 [Compound 21.4, 5,7-Difluoro-1-(4-(4-(methylsulfonyl)piperazin-1-yl)phenyl)-1H-benzo[d]imidazol-6-ol]

Same assay, conditions: 3 h; at 10 uM compound; read-out: HSD17β13 % at 10 uM

inhibition at 10 µM [%] | Compound
< 20 | CS(=O)(=O)N1CCN(c2ccc(-n3ncc4cnc(O)c(F)c43)cc2)CC1 [Compound 25.5, 7-Fluoro-1-(4-(4-(methylsulfonyl)piperazin-1-yl)phenyl)-1H-pyrazolo[4,3-c]pyridin-6-ol]
35 | CS(=O)(=O)N1CCN(c2ccc(-n3ncc4ccc(O)cc43)cc2)CC1 [Compound 26.5, 1-(4-(4-(Methylsulfonyl)piperazin-1-yl)phenyl)-1H-indazol-6-ol]
45 | CS(=O)(=O)N1CCN(c2cnc(-n3nnc4cc(F)c(O)c(F)c43)nc2)CC1 [Compound 26.22, 5,7-Difluoro-1-(5-(4-(methylsulfonyl)piperazin-1-yl)pyrimidin-2-yl)-1H-benzo[d][1,2,3]triazol-6-ol]
